# According to PMC12131194, “Rational design, synthesis, and evaluation of novel polypharmacological compounds targeting NaV1.5, KV1.5, and K2P channels for atrial fibrillation” (The Journal of Biological Chemistry, 2025):
# Key:
# h NaV1.5 = biological target: T1, h NaV1.5 (Homo sapiens, UniProt Q14524, R1027Q); assay: TEVC recordings in X. laevis oocytes, NaV1.5; type: cell-based; settings: for Ionic current block INa: from inhibition curves, used for simulation
# T1 construct: expressed in transfected cells; host or cells: Xenopus laevis oocytes injected with cRNA
# Description: To obtain X. laevis oocytes, the frogs were anesthetized with 2 g/L of tricaine methanesulfonate, and the ovarian lobes were mechanically separated with forceps. The oocytes were incubated for 120 min in an OR2 solution containing in mM: NaCl 82.5, KCl 2, MgCl2 1, HEPES 5 (pH 7.5) supplemented with 2 mg/ml of collagenase II (Sigma) to remove residual connective tissue and obtain individual oocytes. Subsequently, the oocytes were washed with a ND96 solution containing in mM: NaCl 96, KCl 2, CaCl2 1.8, MgCl2 1, HEPES 5 (pH 7.5, adjusted with NaOH) and stored at 18 °C in ND96 solution supplemented with 1 ml of gentamicin (50 mg/L), sodium pyruvate (275 mg/L) and (90 mg/L) theophylline (inhibits further oocyte maturation) before and after RNA injection.
# (§1) In order to overexpress the channel in the oocyte, each of the channels to be measured was subcloned (complementary DNA (cDNA); human TASK-1 (KCNK3, NM_002246), h KV1.5 (KCNA5, NM_002234), h NaV1.5 (hH1, M77235), TASK-4/TALK-2 (KCNK17, NM_AF358910), TREK-1 (KCNK2, AF004711) and Kir2.1 (KCNJ2, NM_017296) into pSGEM, pBF1 or pSP64 expression vector, and the cDNA was linearized with NheI or MluI. Complementary RNA (cRNA) was synthesized with the mMESSAGE mMACHINE-Kit (Ambion). The quality of the cRNA was tested on an agarose gel by electrophoresis. cRNA was quantified using a UV-Vis spectrophotometer (NanoDrop 2000). Subsequently, the channel was transfected in the oocytes in stages V and VI, for which 50 nl (TASK-1, KV1.5 or TREK-1), 10 ng (NaV1.5 or TASK-4) o 2.5 ng (Kir2.1) per oocyte of cRNA was injected with a NanojectII microinjector (Drummond Scientific). The oocytes were stored in 24-well plates for 24 to 48 h at 18 °C. After this time, the overexpression of each channel was monitored through electrophysiology.
# Two-electrode voltage clamp measurements were performed 24 or 48 h after cRNA injection at room temperature (20–22 °C) in ND96 recording solution with a TurboTEC-10CD (npi) amplifier and a Digidata 1550B (for TASK-1 and KV1.5) and 1440A (for NaV1.5) A/D converter from Axon Instruments. Micropipettes were fabricated from GB 150 TF-8P borosilicate glass capillaries (Science Products) elongated in a DMZ-Universal Puller (Zeitz, Germany). […] ND96 was used as bath solution. Data acquisition was performed using Clampex 10 software (Axon Instruments), and data were analyzed with ClampFit 10 (Axon Instruments) and Origin 7 (Origin Lab Corporation).
# For compound inhibition testing, from a holding potential of −80 mV a first test pulse to 0 mV of 1 s duration was followed by a repolarization step at −80 mV for 1 s, directly followed by another 1 s test pulse at +40 mV. The sweep time interval was 10 s for KV1.5 and TASK-1 channels. For the NaV1.5 channel, the block was analyzed with voltage steps from a holding potential of −80 mV. A first depolarizing pulse to −30 mV of 50 ms duration was applied, followed by a 5 ms step to −80 mV. The sweep time interval was 5 s. The compounds were applied at different concentrations to determine the half-maximal inhibitory concentration (IC50), using a fit to the Hill equation.
# To test for a putative voltage-dependence of the block by the compound 6f in KV1.5, a 1.5 s voltage step protocol from −80 to +80 mV with +20 mV increments was used. The holding potential was −80 mV and the sweep time interval was 10 s. Currents were analyzed at the end of the voltage pulse. For TASK-1, voltage-dependence of block was probed using a high-potassium solution (KD96) containing in mM: KCl 96, NaCl 2, CaCl2 1.8, MgCl2 1, HEPES 5, (pH 7.5, adjusted with KOH). From a holding potential of 0 mV, voltage was stepped from −80 mV to +80 mV for 1.5 s in +20 mV steps every 10 s. To determine the current-voltage relationship of the NaV1.5 channel, the voltage was stepped for 50 ms from a holding potential of −80 mV to −70 mV to +80 mV in +10 mV increments every 5 s. The peak currents were subsequently plotted against the respective applied voltages.
# Kir2.1 = biological target: T2, Kir2.1 (Rattus norvegicus, UniProt Q64273); assay: TEVC selectivity in X. laevis oocytes, Kir2.1; type: cell-based; settings: mean ± SD, n = 3, read-out: Effect on Kir2.1 (inhibition)
# T2 construct: Kir2.1 (KCNJ2, NM_017296); expressed in transfected cells; host or cells: Xenopus laevis oocytes injected with cRNA
# T2 sequence (Q64273 1-427): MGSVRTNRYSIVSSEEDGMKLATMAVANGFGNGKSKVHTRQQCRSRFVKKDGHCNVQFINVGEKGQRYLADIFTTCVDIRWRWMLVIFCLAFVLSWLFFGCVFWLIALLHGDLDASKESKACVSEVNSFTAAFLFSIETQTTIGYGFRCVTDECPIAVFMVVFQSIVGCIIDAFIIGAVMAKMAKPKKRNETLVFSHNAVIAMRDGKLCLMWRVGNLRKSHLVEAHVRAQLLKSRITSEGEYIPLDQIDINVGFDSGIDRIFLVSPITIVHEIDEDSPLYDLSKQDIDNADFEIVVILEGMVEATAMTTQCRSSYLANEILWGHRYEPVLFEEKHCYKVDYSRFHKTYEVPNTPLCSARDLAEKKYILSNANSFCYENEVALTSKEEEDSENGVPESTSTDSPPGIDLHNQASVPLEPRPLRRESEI
# Description: After confirming compound 6f simultaneous blockade of TASK-1, KV1.5, and NaV1.5, other cardiac channels (Kir2.1, TREK-1, TASK-4) were tested for selectivity at 100 μM (Fig. 8).
# To obtain X. laevis oocytes, the frogs were anesthetized with 2 g/L of tricaine methanesulfonate, and the ovarian lobes were mechanically separated with forceps. The oocytes were incubated for 120 min in an OR2 solution containing in mM: NaCl 82.5, KCl 2, MgCl2 1, HEPES 5 (pH 7.5) supplemented with 2 mg/ml of collagenase II (Sigma) to remove residual connective tissue and obtain individual oocytes. […]
# as §1, with “Subsequently, the channel was transfected in the oocytes in stages V and VI, for which 50 nl (TASK-1, KV1.5 or TREK-1), 10 ng (NaV1.5 or TASK-4) o 2.5 ng (Kir2.1) per oocyte of cRNA was injected with a NanojectII microinjector (Drummond Scientific). The oocytes were stored in 24-well plates for 24 to 48 h at 18 °C.” left out, “electrophysiology. […]” for “electrophysiology.”
# T1 sequence (Q14524 whole entry R1027Q): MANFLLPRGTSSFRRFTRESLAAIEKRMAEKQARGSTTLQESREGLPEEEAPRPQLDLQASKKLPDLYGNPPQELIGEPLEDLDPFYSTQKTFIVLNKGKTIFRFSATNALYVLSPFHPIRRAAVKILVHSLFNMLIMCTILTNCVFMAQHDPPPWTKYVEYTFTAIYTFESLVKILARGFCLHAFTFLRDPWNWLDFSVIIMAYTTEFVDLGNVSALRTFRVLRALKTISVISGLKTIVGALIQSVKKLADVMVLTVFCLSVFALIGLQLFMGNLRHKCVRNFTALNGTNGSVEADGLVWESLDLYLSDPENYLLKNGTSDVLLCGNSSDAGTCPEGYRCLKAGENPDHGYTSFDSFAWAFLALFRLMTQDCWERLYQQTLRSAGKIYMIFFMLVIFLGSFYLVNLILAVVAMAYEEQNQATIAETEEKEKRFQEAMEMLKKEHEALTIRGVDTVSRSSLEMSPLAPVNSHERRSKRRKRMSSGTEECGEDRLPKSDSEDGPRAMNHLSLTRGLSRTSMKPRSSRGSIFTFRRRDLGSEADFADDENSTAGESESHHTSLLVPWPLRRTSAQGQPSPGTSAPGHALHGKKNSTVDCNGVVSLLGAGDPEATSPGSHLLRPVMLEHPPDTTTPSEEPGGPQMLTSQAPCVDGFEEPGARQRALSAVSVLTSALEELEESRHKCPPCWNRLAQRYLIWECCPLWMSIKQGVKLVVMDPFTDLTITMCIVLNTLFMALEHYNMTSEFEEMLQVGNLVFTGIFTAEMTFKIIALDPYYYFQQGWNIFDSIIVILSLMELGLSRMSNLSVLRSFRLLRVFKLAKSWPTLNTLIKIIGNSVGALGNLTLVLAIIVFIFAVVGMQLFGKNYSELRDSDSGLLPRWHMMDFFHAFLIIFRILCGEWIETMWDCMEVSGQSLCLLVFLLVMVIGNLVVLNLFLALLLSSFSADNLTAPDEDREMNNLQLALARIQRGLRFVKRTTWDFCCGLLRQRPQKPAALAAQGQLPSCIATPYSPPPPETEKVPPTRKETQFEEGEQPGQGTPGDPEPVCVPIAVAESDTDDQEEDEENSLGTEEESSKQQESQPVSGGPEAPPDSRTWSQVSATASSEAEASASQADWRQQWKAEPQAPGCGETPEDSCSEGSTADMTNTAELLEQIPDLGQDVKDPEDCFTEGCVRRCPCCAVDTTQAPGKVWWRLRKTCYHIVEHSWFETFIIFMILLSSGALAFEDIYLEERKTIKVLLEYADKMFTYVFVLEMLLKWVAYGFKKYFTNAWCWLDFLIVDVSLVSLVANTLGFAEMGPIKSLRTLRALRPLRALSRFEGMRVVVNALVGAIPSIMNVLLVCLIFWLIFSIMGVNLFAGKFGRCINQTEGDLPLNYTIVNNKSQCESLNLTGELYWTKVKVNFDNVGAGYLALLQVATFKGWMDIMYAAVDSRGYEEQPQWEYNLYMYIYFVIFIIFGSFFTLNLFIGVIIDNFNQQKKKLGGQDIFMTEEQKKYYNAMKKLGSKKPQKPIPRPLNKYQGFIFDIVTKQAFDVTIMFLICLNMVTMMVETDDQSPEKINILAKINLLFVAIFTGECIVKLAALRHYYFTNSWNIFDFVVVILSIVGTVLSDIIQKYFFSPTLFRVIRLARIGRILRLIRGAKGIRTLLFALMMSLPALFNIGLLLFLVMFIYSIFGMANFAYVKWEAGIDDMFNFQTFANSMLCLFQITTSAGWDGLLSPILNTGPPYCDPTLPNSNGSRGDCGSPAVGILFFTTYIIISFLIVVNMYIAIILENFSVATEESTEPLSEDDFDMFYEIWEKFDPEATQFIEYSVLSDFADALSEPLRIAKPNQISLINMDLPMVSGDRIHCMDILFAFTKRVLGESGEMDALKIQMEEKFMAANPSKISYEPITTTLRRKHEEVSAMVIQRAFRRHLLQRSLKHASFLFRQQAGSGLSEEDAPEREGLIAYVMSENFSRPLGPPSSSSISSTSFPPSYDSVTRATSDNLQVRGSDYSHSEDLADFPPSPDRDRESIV
smiles,measurement,setting,value
"CCCCN(CCCC)CC(=O)Nc1ccc(OC)cc1OC [Compound 6f, 2-(dibutylamine)-N-(2,4-dimethoxiphenyl)acetamide]",Ionic current block INa,h NaV1.5; 1 μM,16%
same,Ionic current block INa,h NaV1.5; 10 μM,30%
same,Ionic current block INa,h NaV1.5; 100 μM,65%
same,inhibition at 100 µM,"h NaV1.5; 100 μM, −30 mV, oocytes, mean ± SD",62.4 ± 20.6%
same,Voltage-dependence of block of NaV1.5,"h NaV1.5; oocytes, 100 μM",small but significant variations
same,Frequency-dependent inhibition of NaV1.5,"h NaV1.5; oocytes, 100 μM, 1, 2 and 3 Hz",did not observe a significant frequency-dependent inhibition
same,inhibition at 100 µM,Kir2.1,-1.01%
